Measured values taken from ChEMBL document CHEMBL4673302, “Efficient synthesis and antitumor evaluation of 4-aminomethyl-N-arylpyrazoles: Discovery of potent and selective agents for ovarian cancer” (Bioorg Med Chem, 2021).

How the values were obtained:
OVCAR-3 = assay: Anticancer activity against human OVCAR-3 cells assessed as cell growth inhibition measured after 48 hrs by sulforhodamine B assay; format: functional
MCF7 = assay: Anticancer activity against human MCF7 cells assessed as cell growth inhibition measured after 48 hrs by sulforhodamine B assay; format: functional
HT-29 = assay: Anticancer activity against human HT-29 cells assessed as cell growth inhibition measured after 48 hrs by sulforhodamine B assay; format: functional
PC-3 = assay: Anticancer activity against human PC-3 cells assessed as cell growth inhibition measured after 48 hrs by sulforhodamine B assay; format: functional
U-251 = assay: Anticancer activity against human U-251 cells assessed as cell growth inhibition measured after 48 hrs by sulforhodamine B assay; format: functional
K562 = assay: Anticancer activity against human K562 cells assessed as cell growth inhibition measured after 48 hrs by sulforhodamine B assay; format: functional
786-0 = assay: Anticancer activity against human 786-0 cells assessed as cell growth inhibition measured after 48 hrs by sulforhodamine B assay; format: functional
NCI-H460 = assay: Anticancer activity against human NCI-H460 cells assessed as cell growth inhibition measured after 48 hrs by sulforhodamine B assay; format: functional
[1] = (§1) Cytotoxicity against human HaCaT cells assessed as cell growth inhibition measured after 48 hrs by sulforhodamine B assay; format: cell-based; settings: HaCaT cells
HaCaT = assay: as §1; format: cell-based; settings: hacat, 48 h

CC(C)(C)NCc1c(C(=O)O)nn(-c2ccc(Cl)cc2)c1-c1ccc(Br)cc1
GI50 (OVCAR-3; Homo sapiens, OVCAR-3, 48 h): 513 µM | GI50 (MCF7; Homo sapiens, MCF7, 48 h): 221 µM | GI50 (HT-29; Homo sapiens, HT-29, 48 h): > 542 µM | GI50 (PC-3; Homo sapiens, PC-3, 48 h): > 542 µM | GI50 (U-251; Homo sapiens, U-251, 48 h): > 542 µM | GI50 (K562; Homo sapiens, K562, 48 h): 297 µM | GI50 (786-0; Homo sapiens, 786-0, 48 h): 542 µM | GI50 (NCI-H460; Homo sapiens, NCI-H460, 48 h): > 542 µM | GI50 at 48 h [1]: > 542 µM

CCOC(=O)c1nn(-c2ccc(Cl)cc2)c(-c2ccc(OC)cc2)c1CNC(C)(C)C [listing 1 of 2 here]
GI50 (OVCAR-3; 48 h): 35.4 µM | GI50 (MCF7; 48 h): 238 µM | GI50 (HT-29; 48 h): 45.3 µM | GI50 (PC-3; 48 h): 210 µM | GI50 (U-251; Homo sapiens, U-251, 48 h): 431 µM | GI50 (K562; 48 h): 6.1 µM | GI50 (786-0; 48 h): 119 µM | GI50 (NCI-H460; 48 h): 27 µM | GI50 (HaCaT): 60.1 µM

CCOC(=O)c1nn(-c2ccccc2)c(-c2ccc(F)cc2)c1CNC(C)(C)C
GI50 (OVCAR-3; 48 h): 0.013 µM | GI50 (MCF7; Homo sapiens, MCF7, 48 h): 306 µM | GI50 (HT-29; 48 h): 65.4 µM | GI50 (PC-3; Homo sapiens, PC-3, 48 h): 69.3 µM | GI50 (U-251; Homo sapiens, U-251, 48 h): > 632 µM | GI50 (K562; 48 h): 75.7 µM | GI50 (786-0; Homo sapiens, 786-0, 48 h): > 632 µM | GI50 (NCI-H460; 48 h): 365 µM | GI50 (HaCaT): 74.5 µM

CCOC(=O)c1nn(-c2ccc(Cl)cc2)c(-c2ccccc2)c1CNC(C)(C)C
GI50 (OVCAR-3; Homo sapiens, OVCAR-3, 48 h): > 608 µM | GI50 (MCF7; Homo sapiens, MCF7, 48 h): > 608 µM | GI50 (HT-29; Homo sapiens, HT-29, 48 h): 336 µM | GI50 (PC-3; Homo sapiens, PC-3, 48 h): > 608 µM | GI50 (U-251; Homo sapiens, U-251, 48 h): > 608 µM | GI50 (K562; 48 h): 64.5 µM | GI50 (786-0; Homo sapiens, 786-0, 48 h): > 608 µM | GI50 (NCI-H460; Homo sapiens, NCI-H460, 48 h): > 608 µM | GI50 at 48 h [1]: > 608 µM

CCOC(=O)c1nn(-c2ccc(Cl)cc2)c(-c2ccc(OC)cc2)c1CNC(C)(C)C [listing 2 of 2 here]
GI50 (OVCAR-3; 48 h): > 524 µM | GI50 (MCF7; 48 h): > 524 µM | GI50 (HT-29; 48 h): > 524 µM | GI50 (PC-3; 48 h): > 524 µM | GI50 (U-251; 48 h): > 524 µM | GI50 (K562; 48 h): > 524 µM | GI50 (786-0; 48 h): > 524 µM | GI50 (NCI-H460; 48 h): > 524 µM | GI50 (HaCaT): > 524 µM

CCOC(=O)c1nn(-c2ccccc2)c(-c2ccc(Cl)cc2)c1CNC(C)(C)C [listing 1 of 2 here]
GI50 (OVCAR-3; 48 h): > 559 µM | GI50 (MCF7; 48 h): > 559 µM | GI50 (HT-29; 48 h): > 559 µM | GI50 (PC-3; 48 h): > 559 µM | GI50 (U-251; 48 h): > 559 µM | GI50 (K562; 48 h): > 559 µM | GI50 (786-0; 48 h): > 559 µM | GI50 (NCI-H460; 48 h): > 559 µM | GI50 (HaCaT): > 559 µM

CC(C)(C)NCc1c(C(=O)O)nn(-c2ccccc2)c1-c1ccccc1
GI50 (OVCAR-3; Homo sapiens, OVCAR-3, 48 h): > 716 µM | GI50 (MCF7; Homo sapiens, MCF7, 48 h): > 716 µM | GI50 (HT-29; Homo sapiens, HT-29, 48 h): > 716 µM | GI50 (PC-3; Homo sapiens, PC-3, 48 h): > 716 µM | GI50 (U-251; Homo sapiens, U-251, 48 h): > 716 µM | GI50 (K562; Homo sapiens, K562, 48 h): > 716 µM | GI50 (786-0; Homo sapiens, 786-0, 48 h): > 716 µM | GI50 (NCI-H460; Homo sapiens, NCI-H460, 48 h): > 716 µM | GI50 at 48 h [1]: > 716 µM

CCOC(=O)c1nn(-c2ccccc2)c(-c2ccc(Cl)cc2)c1CNC(C)(C)C [listing 2 of 2 here]
GI50 (OVCAR-3; 48 h): 0.134 µM | GI50 (MCF7; 48 h): 72.4 µM | GI50 (HT-29; 48 h): 58.5 µM | GI50 (PC-3; 48 h): 28.6 µM | GI50 (U-251; 48 h): 73.8 µM | GI50 (K562; 48 h): 57.6 µM | GI50 (786-0; 48 h): 86.7 µM | GI50 (NCI-H460; 48 h): 69.2 µM | GI50 (HaCaT): 63.5 µM
